Entries after “also recorded” stand apart in the source; their conditions may differ. Like-named read-outs stand apart in the source and are kept apart here.
What was measured:
[1] = test system: Candida albicans ATCC 10231; assay: EPA MLB SOP MB-35-00 stainless steel carrier disinfection with ILPS (Example 5); assay type: cell-based
Candida auris AR-0381 = assay: as above; assay type: cell-based
COVID-19 = assay: Nebulized LA outpatient treatment of COVID-19 patients and close contacts (case studies); assay type: in vivo, human
Procedure: After informed consent of the risks and potential benefits, we nebulized 0.56 ml 11 mM LA every 4 hours to treat two COVID-19 patients. The initial treatment of the […] began after two days of symptoms and the […] began treatment after their first day symptoms. Treatment observations of these two cohabiting patients occurred in their home to alter the likely course of clinical deterioration given their co-morbidities.
They were treated with 0.56 ml 11 mM nebulized LA every 4 hours, around the clock for 7 days. Oxygen saturation levels were recorded by the patient using a pulse oximeter. The initial and final evaluation was conducted as a home visit. All other evaluations were conducted by telephone. The treatment timeline starts the day after the initial home visit. • Day 1: they reported a total loss of taste and smell and mild chest pain. They also reported absence of dyspnea early that day and improved cough. Their oxygen saturation measured 98% (up from 94%). • Day 2: they reported intermittent taste and smell through day 4. Their chest pain resolved. They also reported infrequent loose bowel movements which improved and resolved over the following 3 days. They described no dyspnea. Their oxygen saturation measured 97%. • Day 3: they reported a return of mild dyspnea. Their oxygen saturation measured 95%. • Day 4: they reported dyspnea improvement. Their oxygen saturation measured between 95-98%. • Day 5: they reported that their sense of taste and smell was close to normal. They also reported that their cough had resolved and they had minimal dyspnea. Their oxygen saturation measured 97%. • Day 6: no reported symptoms. Their oxygen saturation measured 97%. • Day 7: no reported symptoms. Their oxygen saturation measured 98%.
After informed consent of the risks and potential benefits, we nebulized 0.56 ml 11 mM LA every 4 hours around the clock for 7 days. […] […] initial oxygen saturation measured 96%.
Oxygen saturation levels were recorded by the patient using a pulse oximeter. The initial and final evaluation was conducted as a home visit. All other evaluations were conducted by telephone. The treatment timeline starts the day after the initial home visit. • Day 1: they reported loss of taste and smell and fatigue. Their wheezing had improved. They reported no dyspnea. Oxygen saturation measured 95%. • Day 2: they reported mild wheezing and dyspnea. Their oxygen saturation measured 94%. An additional treatment of an Albuterol nebulizer and Methylprednisolone Dosepak was started for their asthma exacerbation. When starting nebulized Albuterol, this patient inadvertently discontinued the nebulized LA because they misunderstood instructions. This cessation of nebulized LA was not reported to the treating physician until Day 4. • Day 3: they reported improved loss of taste and smell and cough. Dyspnea worsened. Oxygen saturation measured 98% • Day 4: they reported that the loss of taste and smell improved. They also reported mild wheezing and cough. Oxygen saturation measured 95%. The patient reported the Albuterol nebulizer aggravated dyspnea symptoms. Because of their complaint, the Albuterol nebulizer was discontinued. Nebulized LA treatment was started again. • Day 5: they reported no loss of taste and smell. Minimal cough, wheeze, and dyspnea. Oxygen saturation measured 96% • Day 6: no reported symptoms. Oxygen saturation measured 98%. • Day 7: no reported symptoms. Oxygen saturation measured 98%.
Four lab confirmed COVID-19 cases, 2 probable cases, and 2 close contacts of confirmed COVID-19 cases were nebulized 0.56 ml 11 mM LA (Table 2). Treatment with LA was started after patients were assessed by their primary physician. Patients presented at different points in their COVID-19 infection. Onset of treatment ranged from asymptomatic to 9 days into the symptom course. Two close contacts with cases were treated. They were asymptomatic. Two close contacts with COVID-19 cases were also nebulized using 0.56 ml 11 mM LA every 4 hours. […]

microbial growth = assay: Reduction in microbial growth; assay type: cell-based; conditions: potassium hexadiene at pH 9
[2] = Solubility of ILCS preparations; assay type: physicochemical; conditions: pH 7-10.5
[3] = test system: methacillin resistant Staphylococcus aureus, vancomycin resistant enterococcus, pseudomonas, aspergillus, Candida albicans, Helicobacter pylori; conditions: studies by a third party; cited from earlier work
[4] = test system: Candida albicans (ATCC 10231); assay: EPA protocol MB-35-00 hard surface carrier disinfection test; conditions: 0.42 M, 1 min
Procedure: (§1) We used EPA protocol MB-35-00 for testing disinfectants against C. auris (US Environmental Protection Agency. 2017, 2020) and C. albicans ATCC 10231, a yeast common in package spoilage of food and cosmetics.
(§2) We tested 5 batches produced with difference sources of isomerized linoleic acid (Test Substances 1-5).
(§3) The EPA test protocol for testing hard surface disinfection of C. auris (AR0381) with antifungal resistance includes an overnight culture of C. auris (AR.0381) shaken at 200 rpm at 30° C. From this culture, 8 mL was harvested by centrifugation, re-suspended in 2-3 mL phosphate-buffered saline (PBS), and mixed with a 3-part soil load including bovine serum albumin (BSA), yeast extract, and mucin. Metal carriers (10 mm) were inoculated (10 μL culture+soil load) and dried in a desiccator under vacuum (˜70 min). The disk surface was coated with the test substance at 0.42 M (50 μL) for up to 10 min. Following incubation, the carriers were transferred to 10 mL neutralization solution (Sabouraud Dextrose Broth [SDB], a common yeast-mold growth media) for subsequent harvesting on membrane filters. The filtered membranes were transferred to Sabouraud Dextrose Emmons Agar (SDEA) plates to culture for 120 hours at 31° C. Controls consisted of PBS (50 μL) applied to inoculated metal disk carriers, subsequently transferred to 10 mL neutralization solution (SDB), diluted serially in PBS, and plated directly to SDEA plates, See FIG. 2.
(§4) We prepared and qualified these per EPA protocol (US Environmental Protection Agency, 2017). • Soil Stocks: We prepared soil stocks with yeast extract powder (Ref RM027) purchased from Himedia, BSA (A2153) purchased from Sigma Life Science, and gastric mucin (cat #HY-B2196/CS-7626) purchased from Mod Chem Express per SOP MB-35-00 (US Environmental Protection Agency, 2017). • Cell Harvesting: We removed cells from the growth culture media using a Micro-Centrifuge obtained from Changzhou Jintan Sanhe Instrument Co., LTD. (Model TGI6-W) at 10,000×g for 10 min in screw-top-cap vials purchased from Heathrow Scientific (Item HS 100600). The optical density of the inoculate was defined at 15-19 OD600 in PBS with the Ultrospec 10 Cell Density Meter from BioChrom (Holliston, MA, USA) prior to dilution in the soil load. Samples were diluted 1:10 in PBS to obtain absorbance readings between 1.5 and 1.9. • Membrane Filtration: Treated yeasts were collected using a combination of the Rocker (Cat #200300-01) and 47 mm PES membranes with a 0.45 micron pore size obtained from Sterlitech (Catalog #PE54547100).

SARS-COV-2 = assay: Virucidal assay, 2 minutes contact, end-point titer (CCID50) on Vero 76 cells
[5] = Concentration 11.3% of 12% ICLS, 2 minutes, 22±2° C., Table 4
[6] = Concentration 22.5% of 12% ICLS, 2 minutes, 22±2° C., Table 4
[7] = Concentration 45% of 12% ICLS, 2 minutes, 22±2° C., Table 4
[8] = Concentration 90% of 12% ICLS, 2 minutes, 22±2° C., Table 4
[9] = second experiment, Concentration 0.25% of 12% ICLS, 2 minutes, Table 5
[10] = second experiment, Concentration 0.5% of 12% ICLS, 2 minutes, Table 5
[11] = second experiment, Concentration 1% of 12% ICLS, 2 minutes, Table 5
[12] = second experiment, Concentration 11.3% of 12% ICLS, 2 minutes, 22±2° C., Table 5
[13] = second experiment, LA 1% (4.4 mM), 2 minutes, Tables 8 and 9

Procedure for Candida auris (AR-0381): as §1, §2, §3, §4

With “potassium salt of isomerized linoleic acid [ILCS]” the “growth on exposed carrier” value ([1]; 1 minute exposure to ILPS, only exposure time of 8 to 1 minutes with growth) was 158 CFU, the kill ([1]; 2 minutes exposure/immersion, carriers with 6-8 log yeast) was 100% and the “colonies recovered from treated surfaces” value ([1]; undiluted ILPS, 10 minutes contact time, PBS controls 5.9 to 7.2 log10 CFU) was “no Candida albicans colonies”. The kill (Candida auris AR-0381; 2-minute immersion, carriers inoculated with 6-8 log yeast) was 100%, the “colonies recovered from treated carries” value (Candida auris AR-0381; undiluted ILPS, 10 minutes, seven carries, untreated 7.1-7.2 log10 CFU) was “no colonies” and the “COVID-19 Complications” value (COVID-19; Cases 1) was “none”. For the same substance, the “Total Duration of Symptoms” value (COVID-19; Cases 1, 0 days of symptoms before treatment) was 0 days, the “COVID-19 Complications” value (COVID-19; Cases 2) was “none” and the “Total Duration of Symptoms” value (COVID-19; Cases 2, 2 days of symptoms before treatment) was 7 days. The “Total Duration of Symptoms” value (COVID-19; Cases 3, 4 days of symptoms before treatment) was 16 days, the “Total Duration of Symptoms” value (COVID-19; Cases 4, 9 days of symptoms before treatment) was 23 days and the “COVID-19 Complications” value (COVID-19; Close Contacts 1) was “none”. For the same substance, the “Total Duration of Symptoms” value (COVID-19; Close Contacts 1, asymptomatic at treatment) was 0 days, the “COVID-19 Complications” value (COVID-19; Close Contacts 2) was “none” and the “Total Duration of Symptoms” value (COVID-19; Close Contacts 2, asymptomatic at treatment) was 0 days. For the same substance, the “COVID-19 Complications” value (COVID-19; Probable Cases 1) was “Steroid for asthma”, the “Total Duration of Symptoms” value (COVID-19; Probable Cases 1, 1 day of symptoms before treatment) was 6 days and the “COVID-19 Complications” value (COVID-19; Probable Cases 2) was “none”. The “Total Duration of Symptoms” value (COVID-19; Probable Cases 2, 3 days of symptoms before treatment) was 10 days, the “side effects to nebulized LA” value (COVID-19; eight patients of Example 7, nebulized 0.56 ml 11 mM LA, listed as LA) was “no side effects; also recorded: None of the eight patients reported any side effects” and the oxygen saturation (COVID-19; husband, treatment Day 1 (94% before treatment)) was 98%. For the same substance, the oxygen saturation (COVID-19; husband, treatment Day 2) was 97%, the oxygen saturation (COVID-19; husband, treatment Day 3) was 95% and the oxygen saturation (COVID-19; husband, treatment Day 4) was 95-98%. For the same substance, the oxygen saturation (COVID-19; husband, treatment Day 5) was 97%, the oxygen saturation (COVID-19; husband, treatment Day 6) was 97% and the oxygen saturation (COVID-19; husband, treatment Day 7) was 98%. For the same substance, the “prevention of symptoms in close contacts” value (COVID-19; two asymptomatic close contacts of COVID-19 cases) was “completely effective”, the “side effects to nebulized LA” value (COVID-19; two patients of Example 6, 0.56 ml 11 mM every 4 hours for 7 days) was “no side effects” and the oxygen saturation (COVID-19; wife, Day 2, Albuterol and Methylprednisolone started, LA inadvertently discontinued) was 94%. For the same substance, the oxygen saturation (COVID-19; wife, Day 3, nebulized LA discontinued, on Albuterol) was 98%, the oxygen saturation (COVID-19; wife, Day 4, nebulized LA started again) was 95% and the oxygen saturation (COVID-19; wife, treatment Day 1 (96% before treatment)) was 95%. It also gave an oxygen saturation (COVID-19; wife, treatment Day 5) of 96%, an oxygen saturation (COVID-19; wife, treatment Day 6) of 98% and an oxygen saturation (COVID-19; wife, treatment Day 7) of 98%. The “reduction in microbial growth” value (microbial growth) was 8-10 log reduction, the solubility [2] was “remain soluble” and the log kill rate (Candida auris (AR-0381); 0.42 M, 1 min) was “greater than 5 log”. The log kill rates (Candida auris (AR-0381); 10-min test, the longest time allowed per the SOP) was “greater than 5 log”, the “toxicity to cells in titer plates” value (Vero 76 cells; 11.3% sample, 1/10 dilution) was “Full toxicity” and the “toxicity to cells in titer plates” value (Vero 76 cells; 22.5%-90% samples, 1/10 and 1/100 dilutions) was “Full toxicity”. The growth of pathogens [3] was “suppresses the growth”, the log kill rate [4] was “greater than 5 log” and the “reduction of virus vs virus controls” value (SARS-COV-2) was over 99%. For the same substance, the “reduction of virus vs virus controls” value (SARS-COV-2; 1% (4.4 mM), 2 minutes, second experiment, titer reduced to 1.7 log CCID50 per 0.1 mL) was 99%, the “reduction of virus vs virus controls” value (SARS-COV-2; 22.5%-90%, 2 minutes, first experiment, below limit of detection 2.7 log CCID50 per 0.1 mL) was over 80% and the “LRV (log reduction value)” value (SARS-COV-2; [5]) was over 1.8. For the same substance, the “Virus Titer” value (SARS-COV-2; [5]) was <1.7 Log10 CCID50 of virus per 0.1 mL, the “LRV (log reduction value)” value (SARS-COV-2; [6]) was over 0.8 and the “Virus Titer” value (SARS-COV-2; [6]) was <2.7 Log10 CCID50 of virus per 0.1 mL. The “LRV (log reduction value)” value (SARS-COV-2; [7]) was over 0.8, the “Virus Titer” value (SARS-COV-2; [7]) was <2.7 Log10 CCID50 of virus per 0.1 mL and the “LRV (log reduction value)” value (SARS-COV-2; [8]) was over 0.8. The “Virus Titer” value (SARS-COV-2; [8]) was <2.7 Log10 CCID50 of virus per 0.1 mL, the “kill-rate of COVID-19 (SARS-Cov-2) in vitro” value (SARS-COV-2; LA 4.4-50.2 mM, 2 minutes) was 99% and the “LRV (log reduction value)” value (SARS-COV-2; [9]) was 0.4. The “Virus Titer” value (SARS-COV-2; [9]) was 3.3 Log10 CCID50 of virus per 0.1 mL, the “LRV (log reduction value)” value (SARS-COV-2; [10]) was 0.2 and the “Virus Titer” value (SARS-COV-2; [10]) was 3.5 Log10 CCID50 of virus per 0.1 mL. The “LRV (log reduction value)” value (SARS-COV-2; [11]) was 2.0, the “Virus Titer” value (SARS-COV-2; [11]) was 1.7 Log10 CCID50 of virus per 0.1 mL and the “LRV (log reduction value)” value (SARS-COV-2; [12]) was over 2.0. For the same substance, the “Virus Titer” value (SARS-COV-2; [12]) was <1.7 Log10 CCID50 of virus per 0.1 mL, the “LRV (log reduction value)” value (SARS-COV-2; [13]) was over 2.0 and the Virus Titer (SARS-COV-2; [13]) was <1.7 Log10 CCID50of virus per 0.1 mL.

Reference: patent US12611380B2, “Solution and method for reducing the virulence of viruses, bacteria, yeasts, or fungus” (priority 2020, dated 2026)
